Values of other authors, collected in patent US20230149379A1, “COMBINATION THERAPY FOR ACUTE MYELOID LEUKEMIA” (Celgene Corporation, priority 2020, published 2023).

Key:
AML at relapse = settings: administered alone
R/R AML = settings: stepwise dosing

| Compound | response in treating AML at relapse (AML at relapse) | tumor lysis syndrome (R/R AML) |
| --- | --- | --- |
| CT-011: anti-PD-1 antibody, a humanized antibody | failed to show response |  |
| CC1(C)CCC(CN2CCN(c3ccc(C(=O)NS(=O)(=O)c4ccc(NCC5CCOCC5)c([N+](=O)[O-])c4)c(Oc4cnc5[nH]ccc5c4)c3)CC2)=C(c2ccc(Cl)cc2)C1 [Venetoclax, 4-[4-[[2-(4-chlorophenyl)-4,4-dimethylcyclohexen-1-yl]methyl]piperazin-1-yl]-N-[3-nitro-4-(oxanylmethylamino)phenyl]sulfonyl-2-(1H-pyrrolo[2,3-b]pyridin-5-yloxy)benzamide] |  | did not occur |
